Experiments:
Type in all cases: functional, organism-based
Plasmodium falciparum [1] = assay: Antimalarial activity against multidrug-resistant Plasmodium falciparum TM91C235 assessed as inhibition of [3H]hypoxanthine incorporation after 96 hrs by microtiter plate scintillation counting
Plasmodium falciparum [2] = assay: Antimalarial activity against chloroquine-sensitive Plasmodium falciparum D6 assessed as inhibition of [3H]hypoxanthine incorporation after 96 hrs by microtiter plate scintillation counting
Plasmodium falciparum [3] = assay: Antimalarial activity against chloroquine-,pyrimethamine-resistant Plasmodium falciparum W2 assessed as inhibition of [3H]hypoxanthine incorporation after 96 hrs by microtiter plate scintillation counting

Structure (SMILES) | IC50 (Plasmodium falciparum [1]) [nM] | IC50 (Plasmodium falciparum [2]) [nM] | IC50 (Plasmodium falciparum [3]) [nM]
CC[C@H]1OC(=O)[C@H](C)[C@@H](O[C@H]2C[C@@](C)(OC)[C@@H](O)[C@H](C)O2)[C@H](C)[C@@H](O[C@@H]2O[C@H](C)C[C@H](N(C)C)[C@H]2O)[C@](C)(O)C[C@@H](C)CN(CCCNC(=S)Nc2ccc(/N=N/c3ccccc3)cc2)[C@H](C)[C@@H](O)[C@]1(C)O | 96.3 | 107 | 47.9
CC[C@H]1OC(=O)[C@H](C)[C@@H](O[C@H]2C[C@@](C)(OC)[C@@H](O)[C@H](C)O2)[C@H](C)[C@@H](O[C@@H]2O[C@H](C)C[C@H](N(C)C)[C@H]2O)[C@](C)(O)C[C@@H](C)CN(CCCNC(=S)NC2CC3C=CC2C3)[C@H](C)[C@@H](O)[C@]1(C)O (stereo partly drawn) | 183 | 302 | 173
CC[C@H]1OC(=O)[C@H](C)[C@@H](O[C@H]2C[C@@](C)(OC)[C@@H](O)[C@H](C)O2)[C@H](C)[C@@H](O[C@@H]2O[C@H](C)C[C@H](N(C)C)[C@H]2O)[C@](C)(O)C[C@@H](C)CN(CCCNC(=O)Nc2c(C)noc2C)[C@H](C)[C@@H](O)[C@]1(C)O | 12800 | 12800 | 12800
CC[C@H]1OC(=O)[C@H](C)[C@@H](O[C@H]2C[C@@](C)(OC)[C@@H](O)[C@H](C)O2)[C@H](C)[C@@H](O[C@@H]2O[C@H](C)C[C@H](N(C)C)[C@H]2O)[C@](C)(O)C[C@@H](C)CN(CCCNC(=S)Nc2ccccc2F)[C@H](C)[C@@H](O)[C@]1(C)O | 122 | 987 | 400
CC[C@H]1OC(=O)[C@H](C)[C@@H](O[C@H]2C[C@@](C)(OC)[C@@H](O)[C@H](C)O2)[C@H](C)[C@@H](O[C@@H]2O[C@H](C)C[C@H](N(C)C)[C@H]2O)[C@](C)(O)C[C@@H](C)CN(CCCNC(=S)NCc2ccco2)[C@H](C)[C@@H](O)[C@]1(C)O | 240 | 329 | 449
CC[C@H]1OC(=O)[C@H](C)[C@@H](O[C@H]2C[C@@](C)(OC)[C@@H](O)[C@H](C)O2)[C@H](C)[C@@H](O[C@@H]2O[C@H](C)C[C@H](N(C)C)[C@H]2O)[C@](C)(O)C[C@@H](C)CN(CCCNC(=O)Nc2cccc(Cl)c2)[C@H](C)[C@@H](O)[C@]1(C)O | 118 | 455 | 187
CC[C@H]1OC(=O)[C@H](C)[C@@H](O[C@H]2C[C@@](C)(OC)[C@@H](O)[C@H](C)O2)[C@H](C)[C@@H](O[C@@H]2O[C@H](C)C[C@H](N(C)C)[C@H]2O)[C@](C)(O)C[C@@H](C)CN(CCCNC(=O)Nc2c(C)noc2-c2ccccc2)[C@H](C)[C@@H](O)[C@]1(C)O | 492 | 936 | 734
CC[C@H]1OC(=O)[C@H](C)[C@@H](O[C@H]2C[C@@](C)(OC)[C@@H](O)[C@H](C)O2)[C@H](C)[C@@H](O[C@@H]2O[C@H](C)C[C@H](N(C)C)[C@H]2O)[C@](C)(O)C[C@@H](C)CN(CCCNC(=O)Nc2ccc3c(c2)OCO3)[C@H](C)[C@@H](O)[C@]1(C)O | 265 | 835 | 111
CC[C@H]1OC(=O)[C@H](C)[C@@H](O[C@H]2C[C@@](C)(OC)[C@@H](O)[C@H](C)O2)[C@H](C)[C@@H](O[C@@H]2O[C@H](C)C[C@H](N(C)C)[C@H]2O)[C@](C)(O)C[C@@H](C)CN(CCCNC(=S)NCc2ccc3c(c2)OCO3)[C@H](C)[C@@H](O)[C@]1(C)O | 216 | 319 | 137
CCc1ccc(NC(=O)NCCCN2C[C@H](C)C[C@@](C)(O)[C@H](O[C@@H]3O[C@H](C)C[C@H](N(C)C)[C@H]3O)[C@@H](C)[C@H](O[C@H]3C[C@@](C)(OC)[C@@H](O)[C@H](C)O3)[C@@H](C)C(=O)O[C@H](CC)[C@@](C)(O)[C@H](O)[C@H]2C)cc1 | 99.3 | 226 | 73.8
CC[C@H]1OC(=O)[C@H](C)[C@@H](O[C@H]2C[C@@](C)(OC)[C@@H](O)[C@H](C)O2)[C@H](C)[C@@H](O[C@@H]2O[C@H](C)C[C@H](N(C)C)[C@H]2O)[C@](C)(O)C[C@@H](C)CN(CCCNC(=S)Nc2sc3c(c2C(=O)OC)CCCC3)[C@H](C)[C@@H](O)[C@]1(C)O | 407 | 825 | 229
CC[C@H]1OC(=O)[C@H](C)[C@@H](O[C@H]2C[C@@](C)(OC)[C@@H](O)[C@H](C)O2)[C@H](C)[C@@H](O[C@@H]2O[C@H](C)C[C@H](N(C)C)[C@H]2O)[C@](C)(O)C[C@@H](C)CN(CCCNC(=S)Nc2ccc([N+](=O)[O-])cc2OC)[C@H](C)[C@@H](O)[C@]1(C)O | 69.7 | 74.5 | 50.1
C=CCNC(=S)NCCCN1C[C@H](C)C[C@@](C)(O)[C@H](O[C@@H]2O[C@H](C)C[C@H](N(C)C)[C@H]2O)[C@@H](C)[C@H](O[C@H]2C[C@@](C)(OC)[C@@H](O)[C@H](C)O2)[C@@H](C)C(=O)O[C@H](CC)[C@@](C)(O)[C@H](O)[C@H]1C | 514 | 1140 | 276
CC[C@H]1OC(=O)[C@H](C)[C@@H](O[C@H]2C[C@@](C)(OC)[C@@H](O)[C@H](C)O2)[C@H](C)[C@@H](O[C@@H]2O[C@H](C)C[C@H](N(C)C)[C@H]2O)[C@](C)(O)C[C@@H](C)CN(CCCNC(=S)NC(C)C)[C@H](C)[C@@H](O)[C@]1(C)O | 428 | 2610 | 1300
CC[C@H]1OC(=O)[C@H](C)[C@@H](O[C@H]2C[C@@](C)(OC)[C@@H](O)[C@H](C)O2)[C@H](C)[C@@H](O[C@@H]2O[C@H](C)C[C@H](N(C)C)[C@H]2O)[C@](C)(O)C[C@@H](C)CN(CCCNC(=O)NC(C)(C)C)[C@H](C)[C@@H](O)[C@]1(C)O | 800 | 5510 | 410
CC[C@H]1OC(=O)[C@H](C)[C@@H](O[C@H]2C[C@@](C)(OC)[C@@H](O)[C@H](C)O2)[C@H](C)[C@@H](O[C@@H]2O[C@H](C)C[C@H](N(C)C)[C@H]2O)[C@](C)(O)C[C@@H](C)CN(CCCNC(=S)NCCCSC)[C@H](C)[C@@H](O)[C@]1(C)O | 354 | 898 | 202
CC[C@H]1OC(=O)[C@H](C)[C@@H](O[C@H]2C[C@@](C)(OC)[C@@H](O)[C@H](C)O2)[C@H](C)[C@@H](O[C@@H]2O[C@H](C)C[C@H](N(C)C)[C@H]2O)[C@](C)(O)C[C@@H](C)CN(CCCNC(=O)Nc2ccc(C#N)cc2)[C@H](C)[C@@H](O)[C@]1(C)O | 206 | 386 | 98.3
CC[C@H]1OC(=O)[C@H](C)[C@@H](O[C@H]2C[C@@](C)(OC)[C@@H](O)[C@H](C)O2)[C@H](C)[C@@H](O[C@@H]2O[C@H](C)C[C@H](N(C)C)[C@H]2O)[C@](C)(O)C[C@@H](C)CN(CCCNC(=S)Nc2cccc3nsnc23)[C@H](C)[C@@H](O)[C@]1(C)O | 101 | 176 | 88.2
CCc1ccccc1NC(=S)NCCCN1C[C@H](C)C[C@@](C)(O)[C@H](O[C@@H]2O[C@H](C)C[C@H](N(C)C)[C@H]2O)[C@@H](C)[C@H](O[C@H]2C[C@@](C)(OC)[C@@H](O)[C@H](C)O2)[C@@H](C)C(=O)O[C@H](CC)[C@@](C)(O)[C@H](O)[C@H]1C | 252 | 445 | 96.2
CC[C@H]1OC(=O)[C@H](C)[C@@H](O[C@H]2C[C@@](C)(OC)[C@@H](O)[C@H](C)O2)[C@H](C)[C@@H](O[C@@H]2O[C@H](C)C[C@H](N(C)C)[C@H]2O)[C@](C)(O)C[C@@H](C)CN(CCCNC(=S)NC2CCCCCCCCCCC2)[C@H](C)[C@@H](O)[C@]1(C)O | 140 | 264 | 85
CC[C@H]1OC(=O)[C@H](C)[C@@H](O[C@H]2C[C@@](C)(OC)[C@@H](O)[C@H](C)O2)[C@H](C)[C@@H](O[C@@H]2O[C@H](C)C[C@H](N(C)C)[C@H]2O)[C@](C)(O)C[C@@H](C)CN(CCCNC(=S)Nc2ccc3c(c2)OCO3)[C@H](C)[C@@H](O)[C@]1(C)O | 173 | 329 | 182
CC[C@H]1OC(=O)[C@H](C)[C@@H](O[C@H]2C[C@@](C)(OC)[C@@H](O)[C@H](C)O2)[C@H](C)[C@@H](O[C@@H]2O[C@H](C)C[C@H](N(C)C)[C@H]2O)[C@](C)(O)C[C@@H](C)CN(CCCNC(=S)Nc2cccnc2)[C@H](C)[C@@H](O)[C@]1(C)O | 801 | 1210 | 1200
CC[C@H]1OC(=O)[C@H](C)[C@@H](O[C@H]2C[C@@](C)(OC)[C@@H](O)[C@H](C)O2)[C@H](C)[C@@H](O[C@@H]2O[C@H](C)C[C@H](N(C)C)[C@H]2O)[C@](C)(O)C[C@@H](C)CN(CCCNC(=S)Nc2cccc([N+](=O)[O-])c2)[C@H](C)[C@@H](O)[C@]1(C)O | 42.9 | 53.4 | 48.3
CC[C@H]1OC(=O)[C@H](C)[C@@H](O[C@H]2C[C@@](C)(OC)[C@@H](O)[C@H](C)O2)[C@H](C)[C@@H](O[C@@H]2O[C@H](C)C[C@H](N(C)C)[C@H]2O)[C@](C)(O)C[C@@H](C)CN(CCCNC(=O)NCc2ccc(OC)cc2)[C@H](C)[C@@H](O)[C@]1(C)O | 484 | 1620 | 204
CC[C@H]1OC(=O)[C@H](C)[C@@H](O[C@H]2C[C@@](C)(OC)[C@@H](O)[C@H](C)O2)[C@H](C)[C@@H](O[C@@H]2O[C@H](C)C[C@H](N(C)C)[C@H]2O)[C@](C)(O)C[C@@H](C)CN(CCCNC(=O)Nc2ccc(F)c(F)c2)[C@H](C)[C@@H](O)[C@]1(C)O | 127 | 300 | 89.6
CC[C@H]1OC(=O)[C@H](C)[C@@H](O[C@H]2C[C@@](C)(OC)[C@@H](O)[C@H](C)O2)[C@H](C)[C@@H](O[C@@H]2O[C@H](C)C[C@H](N(C)C)[C@H]2O)[C@](C)(O)C[C@@H](C)CN(CCCNC(=S)Nc2cc(Cl)cc(Cl)c2)[C@H](C)[C@@H](O)[C@]1(C)O | 55.4 | 116 | 42.5
